According to ChEMBL document CHEMBL4334436 (Medchemcomm, 2019):
pKi: −log10 of the molar value.

Experiments:
[1] = biological target: D(2) dopamine receptor (Homo sapiens, UniProt P14416); assay: Displacement of [3H]spiperone from human dopamine D2S receptor expressed in CHO-K1 cell membrane incubated for 2 hrs by MicroBeta Trilux scintillation counting method; type: cell membranes
[2] = biological target: D(3) dopamine receptor (Homo sapiens, UniProt P35462); assay: Displacement of [3H]spiperone from human dopamine D3 receptor expressed in dihydrofolate reductase deficient CHO-K1 cell membrane incubated for 2 hrs by MicroBeta Trilux scintillation counting method; type: cell membranes
Sequence of D(3) dopamine receptor (P35462 whole entry): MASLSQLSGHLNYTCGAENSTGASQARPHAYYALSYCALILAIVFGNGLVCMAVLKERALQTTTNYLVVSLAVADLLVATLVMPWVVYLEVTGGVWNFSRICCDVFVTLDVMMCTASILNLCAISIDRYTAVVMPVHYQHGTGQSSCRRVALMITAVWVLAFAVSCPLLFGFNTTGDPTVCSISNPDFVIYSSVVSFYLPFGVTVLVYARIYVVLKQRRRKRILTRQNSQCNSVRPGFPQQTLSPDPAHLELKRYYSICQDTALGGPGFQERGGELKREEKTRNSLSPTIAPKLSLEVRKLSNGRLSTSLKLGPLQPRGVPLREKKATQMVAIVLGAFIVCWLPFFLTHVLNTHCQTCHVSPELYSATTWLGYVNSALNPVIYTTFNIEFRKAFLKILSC

Sequence of D(2) dopamine receptor (P14416 whole entry): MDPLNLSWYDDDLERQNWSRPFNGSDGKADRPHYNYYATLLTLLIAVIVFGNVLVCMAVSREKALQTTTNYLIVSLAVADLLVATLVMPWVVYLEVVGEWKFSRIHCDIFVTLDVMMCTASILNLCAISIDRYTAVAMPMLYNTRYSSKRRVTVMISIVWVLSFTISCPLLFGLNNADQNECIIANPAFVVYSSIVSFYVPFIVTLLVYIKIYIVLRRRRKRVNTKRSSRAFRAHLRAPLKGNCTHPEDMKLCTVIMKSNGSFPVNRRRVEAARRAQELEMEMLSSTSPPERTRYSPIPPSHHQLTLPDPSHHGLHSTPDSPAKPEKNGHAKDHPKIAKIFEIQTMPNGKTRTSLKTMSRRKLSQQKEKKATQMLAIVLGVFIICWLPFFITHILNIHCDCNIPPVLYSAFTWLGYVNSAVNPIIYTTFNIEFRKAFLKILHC

Row | pKi [1] | pKi [2] | SMILES
1 | 5.56 | 5.42 | Nc1nc2c(s1)CCN(CCCCN1CCN(c3ncccn3)CC1)CC2
2 | 5.60 | 5.51 | c1cnc(N2CCN(CCCCN3CCc4ncsc4CC3)CC2)nc1
3 | 6.82 | 6.62 | COc1ccccc1N1CCN(CCN2CCc3ncsc3CC2)CC1
4 | 5.20 | 5.42 | c1nc2c(s1)CCN(CCCCN1CCc3ncsc3CC1)CC2
5 | 7.19 | 6.78 | COc1ccccc1N1CCN(CCCN2CCc3ncsc3CC2)CC1
6 | 7.07 | 6.51 | COc1ccccc1N1CCN(CCCCN2CCc3ncsc3CC2)CC1

More lines, now with the values behind:

Row | SMILES | pKi [1] | pKi [2]
7 | O=C(c1ccccc1)N1CCN(CCN2CCc3ncsc3CC2)CC1 | 4.38 | 4.91
8 | Clc1cccc(N2CCN(CCCCN3CCc4ncsc4CC3)CC2)c1Cl | 7.74 | 7.55
9 | COc1ccccc1N1CCN(CCCCOc2ccc3scnc3c2)CC1 | 8.49 | 8.07
10 | O=C(NCCCCN1CCc2ncsc2CC1)C12CC3CC(CC(C3)C1)C2 | 5.26 | 6.35
11 | COc1ccccc1N1CCN(CCCCOc2ccc3sc(N)nc3c2)CC1 | 8.55 | 8.52
12 | COc1ccccc1N1CCN(CCCN2CCCc3ncsc3C2)CC1 | 6.75 | 6.59
13 | Nc1nc2c(s1)CCN(CCCCN1CCN(c3cccc(Cl)c3Cl)CC1)CC2 | 7.65 | 7.59
